# Experimental data: patent US20250353825A1, “CANNABICYCLOL DERIVATIVES AND PREPARATION METHODS THEREOF” (priority 2023, published 2025)
# System: not listed separately
# Assay: MTS cell viability assay, HEK-293T (293T) normal cells
# Format: cell-based
# Settings: human, HEK-293T (293T) normal cells; primary viability screening, 72 hours, MTS; test concentration not stated; read-out: Cell viability in 293T (%)
# Procedure: (§1) Primary viability screening: (1) the synthesized compounds 3a to 13d were respectively dissolved in DMSO to prepare a 40 μg/mL cannabicyclol and cannabicyclol derivative solutions.
# (§2) (2) A control group: a 200 μL DMSO solvent.
# (§3) (3) The solutions of compounds 3a to 13d were diluted in a twofold gradient to obtain cannabicyclol and cannabicyclol derivative solutions at concentrations of 40 μg/mL, 20 μg/mL, 10 μg/mL, 5 μg/mL, 2.5 μg/mL, 1.25 μg/mL, and 0.625 μg/mL, and 0.3125 μg/mL, respectively.
# (§4) (4) Three glioblastoma stem cells (GSC-3, GSC-12, and GSC-18), three pancreatic cancer cell-derived stem cells (PANC-1-CSC, BXPC-3-CSC, and ASPC1-CSC), three liver cancer cell-derived stem cells (HepG2-CSC, MHCC97H-CSC, and SMMC7721-CSC), HEK-293T cells, 16 tumor cells (U251, U87, T98G, PANC1, BXPC3, ASPC1, HepG2, MHCC97H, SMMC7721, PC3, SKOV3, MDA-MB231, A549, HCT116, HEC-1B, MKN28), and differentiated glioblastoma stem cells (GSC-3diff and GSC-12diff) derived from GSC-3 and GSC-12 (all of the cells were provided by the Laboratory of Tumor Animal Model Preparation and Application Research, West China Hospital, Sichuan University) were inoculated into a 96-well plate at a concentration of 2×10^4 cells/well, and 100 μL of culture medium was then added to each well;
# (§5) (5) 2) HEK-293T, GSC-3diff, GSC-12diff, and the 16 tumor cells were added with DMEM, 10% FBS, and 1% double antibody culture medium. Cancer stem cells (CSCs) were added with serum-free stem cell medium consisting of DMEM/F12, EGF (20 ng/mL), bFGF (20 ng/mL), B27 (1×), and 1% double antibody culture medium.
# (§6) (6) Inoculated cells were put into a cell culture incubator for 24 hours, and after the cells were well adhered to the wall, the culture medium in the 96-well plate was discarded.
# (§7) (7) 200 μL cannabicyclol and cannabicyclol derivatives solutions at different concentrations were added to the cultured cells.
# (§8) (8) The experiment was set up with 3 replicates.
# (§9) (9) The 96-well plate was placed in a cell culture incubator, and incubation was continued at 37° C. and 5% CO2 for 72 hours. Then, 100 μL of cannabicyclol and cannabicyclol derivative solution per well was discarded (100 μL of DMSO solvent was discarded for the control group), and 20 μL of LMTS (CellTiter AQueous Non-Radioactive Cell Proliferation Assay, #G3581) was mixed and continued to be placed in the cell incubator for 2 hours of incubation.
# (§10) (10) The absorbance value at 490 nm was measured on an enzyme labeling apparatus, and the IC50 value was calculated.
row,Compound,viability at 72 h
1,CCCc1cc(O)c2c(c1)OC1(C)CCC3C1C2C3(C)C (stereo not drawn) [Compound 3d],91%
2,C=CC(=O)Oc1cc(CCCCC)cc2c1C1C3C(CCC3(C)O2)C1(C)C (stereo not drawn) [Compound 9f],35%
3,CCCCCc1cc(O)c2c(c1)OC1(C)CCC3C(C4CC4)C2C31 (stereo not drawn) [Compound 3y],≥ 100%
4,CCCCCc1cc(O)c2c(c1)OC1(C)CCC3C(c4ccccc4)C2C31 (stereo not drawn) [Compound 3x],97%
5,CCCCCc1cc(OC(=O)c2ccncc2)c2c(c1)OC1(C)CCC3C1C2C3(C)C (stereo not drawn) [Compound 9i],91%
6,CCCCCc1cc(OCC(=O)NCCc2cc3ccccc3[nH]2)c2c(c1)OC1(C)CCC3C1C2C3(C)C (stereo not drawn) [Compound 7h],87%
7,CCCCCc1cc(OC(C)=O)c2c(c1)OC1(C)CCC3C1C2C3(C)C (stereo not drawn) [Compound 9b],92%
8,CCCCCCc1cc(O)c2c(c1)OC1(C)CCC3C1C2C3(C)C (stereo not drawn) [Compound 3f],18%
9,CCCCCc1cc(O)c2c(c1)OC1(C)CCC3C(C)C2C31 (stereo not drawn) [Compound 3u],78%
10,CCCCCc1cc(OC(=O)Cc2ccc3ccccc3c2)c2c(c1)OC1(C)CCC3C1C2C3(C)C (stereo not drawn) [Compound 9e],≥ 100%
11,CCCCCc1cc(OCc2cn(S(=O)(=O)c3ccc(C)cc3)nn2)c2c(c1)OC1(C)CCC3C1C2C3(C)C (stereo not drawn) [Compound 7i],71%
12,CCCCCCCCCCCCCc1cc(O)c2c(c1)OC1(C)CCC3C1C2C3(C)C (stereo not drawn) [Compound 3i],8%
13,CCCCCc1cc(OC(=O)c2ccco2)c2c(c1)OC1(C)CCC3C1C2C3(C)C (stereo not drawn) [Compound 9j],≥ 100%
14,CCCCCCCCc1cc(O)c2c(c1)OC1(C)CCC3C1C2C3(C)C (stereo not drawn) [Compound 3h],16%
15,C#CCOc1cc(CCCCC)cc2c1C1C3C(CCC3(C)O2)C1(C)C (stereo not drawn) [Compound 7e],75%
16,CCCCCc1cc(OCCC)c2c(c1)OC1(C)CCC3C1C2C3(C)C (stereo not drawn) [Compound 7d],77%
17,CCCCCCCc1cc(O)c2c(c1)OC1(C)CCC3C1C2C3(C)C (stereo not drawn) [Compound 3g],11%

# Same assay, conditions: human; primary viability screening, 72 hours, MTS; test concentration not stated; read-out: Cell viability in 293T (%)
row,Compound,viability at 72 h
1,CC12CCC3C1C(c1c(O)cccc1O2)C3(C)C (stereo not drawn) [Compound 3b],97%
2,CCCCCc1cc(O)c2c(c1)OC1(C)CCC3C(CC)C2C31 (stereo not drawn) [Compound 3v],79%

# System: GSC-3 (3#-GSC)
# Assay: MTS cell viability assay, glioblastoma stem cells GSC-3 (3#-GSC)
# Format: cell-based
# Settings: judged in words from preliminary viability screening against 3#-GSC, 293T and U251
# Procedure: as §1, §2, §3, §4, §5, §6, §7, §8, §9, §10
row,Compound,selective anti-glioma stem cell viability
1,CC12CCC3C1C(c1c(O)cccc1O2)C3(C)C (stereo not drawn) [Compound 3b],selective anti-glioma stem cell viability
2,CCCCCc1cc(OC(C)=O)c2c(c1)OC1(C)CCC3C1C2C3(C)C (stereo not drawn) [Compound 9b],both the viability and selectivity were maintained
3,CCCCCCc1cc(O)c2c(c1)OC1(C)CCC3C1C2C3(C)C (stereo not drawn) [Compound 3f],a certain degree of selective anti-glioma stem cell viability

# Same assay, conditions: primary viability screening, 72 hours, MTS; test concentration not stated
row,Compound,Cell viability in 3#-GSC (%)
1,CC12CCC3C1C(c1c(O)cccc1O2)C3(C)C (stereo not drawn) [Compound 3b],32%
2,CCCc1cc(O)c2c(c1)OC1(C)CCC3C1C2C3(C)C (stereo not drawn) [Compound 3d],40%
3,C=CC(=O)Oc1cc(CCCCC)cc2c1C1C3C(CCC3(C)O2)C1(C)C (stereo not drawn) [Compound 9f],41%
4,CCCCCc1cc(O)c2c(c1)OC1(C)CCC3C(C4CC4)C2C31 (stereo not drawn) [Compound 3y],47%
5,CCCCCc1cc(O)c2c(c1)OC1(C)CCC3C(c4ccccc4)C2C31 (stereo not drawn) [Compound 3x],70%
6,CCCCCc1cc(O)c2c(c1)OC1(C)CCC3C(CC)C2C31 (stereo not drawn) [Compound 3v],30%
7,CCCCCc1cc(OC(=O)c2ccncc2)c2c(c1)OC1(C)CCC3C1C2C3(C)C (stereo not drawn) [Compound 9i],91%
8,CCCCCc1cc(OCC(=O)NCCc2cc3ccccc3[nH]2)c2c(c1)OC1(C)CCC3C1C2C3(C)C (stereo not drawn) [Compound 7h],72%
9,CCCCCc1cc(OC(C)=O)c2c(c1)OC1(C)CCC3C1C2C3(C)C (stereo not drawn) [Compound 9b],28%
10,CCCCCCc1cc(O)c2c(c1)OC1(C)CCC3C1C2C3(C)C (stereo not drawn) [Compound 3f],20%
11,CCCCCc1cc(O)c2c(c1)OC1(C)CCC3C(C)C2C31 (stereo not drawn) [Compound 3u],30%
12,CCCCCc1cc(OC(=O)Cc2ccc3ccccc3c2)c2c(c1)OC1(C)CCC3C1C2C3(C)C (stereo not drawn) [Compound 9e],≥100%
13,CCCCCc1cc(OCc2cn(S(=O)(=O)c3ccc(C)cc3)nn2)c2c(c1)OC1(C)CCC3C1C2C3(C)C (stereo not drawn) [Compound 7i],50%
14,CCCCCCCCCCCCCc1cc(O)c2c(c1)OC1(C)CCC3C1C2C3(C)C (stereo not drawn) [Compound 3i],33%
15,CCCCCc1cc(OC(=O)c2ccco2)c2c(c1)OC1(C)CCC3C1C2C3(C)C (stereo not drawn) [Compound 9j],≥100%
16,CCCCCCCCc1cc(O)c2c(c1)OC1(C)CCC3C1C2C3(C)C (stereo not drawn) [Compound 3h],87%
17,C#CCOc1cc(CCCCC)cc2c1C1C3C(CCC3(C)O2)C1(C)C (stereo not drawn) [Compound 7e],≥100%
18,CCCCCc1cc(OCCC)c2c(c1)OC1(C)CCC3C1C2C3(C)C (stereo not drawn) [Compound 7d],≥100%
19,CCCCCCCc1cc(O)c2c(c1)OC1(C)CCC3C1C2C3(C)C (stereo not drawn) [Compound 3g],90%

# System: U251
# Assay: MTS cell viability assay, U251
# Format: cell-based
# Settings: primary viability screening, 72 hours, MTS; test concentration not stated
# Procedure: as §1, §2, §3, §4, §5, §6, §7, §8, §9, §10
row,Compound,Cell viability in U251 (%)
1,CC12CCC3C1C(c1c(O)cccc1O2)C3(C)C (stereo not drawn) [Compound 3b],97%
2,CCCc1cc(O)c2c(c1)OC1(C)CCC3C1C2C3(C)C (stereo not drawn) [Compound 3d],71%
3,C=CC(=O)Oc1cc(CCCCC)cc2c1C1C3C(CCC3(C)O2)C1(C)C (stereo not drawn) [Compound 9f],64%
4,CCCCCc1cc(O)c2c(c1)OC1(C)CCC3C(C4CC4)C2C31 (stereo not drawn) [Compound 3y],98%
5,CCCCCc1cc(O)c2c(c1)OC1(C)CCC3C(c4ccccc4)C2C31 (stereo not drawn) [Compound 3x],77%
6,CCCCCc1cc(O)c2c(c1)OC1(C)CCC3C(CC)C2C31 (stereo not drawn) [Compound 3v],71%
7,CCCCCc1cc(OC(=O)c2ccncc2)c2c(c1)OC1(C)CCC3C1C2C3(C)C (stereo not drawn) [Compound 9i],88%
8,CCCCCc1cc(OCC(=O)NCCc2cc3ccccc3[nH]2)c2c(c1)OC1(C)CCC3C1C2C3(C)C (stereo not drawn) [Compound 7h],≥100%
9,CCCCCc1cc(OC(C)=O)c2c(c1)OC1(C)CCC3C1C2C3(C)C (stereo not drawn) [Compound 9b],82%
10,CCCCCCc1cc(O)c2c(c1)OC1(C)CCC3C1C2C3(C)C (stereo not drawn) [Compound 3f],78%
11,CCCCCc1cc(O)c2c(c1)OC1(C)CCC3C(C)C2C31 (stereo not drawn) [Compound 3u],72%
12,CCCCCc1cc(OC(=O)Cc2ccc3ccccc3c2)c2c(c1)OC1(C)CCC3C1C2C3(C)C (stereo not drawn) [Compound 9e],≥100%
13,CCCCCc1cc(OCc2cn(S(=O)(=O)c3ccc(C)cc3)nn2)c2c(c1)OC1(C)CCC3C1C2C3(C)C (stereo not drawn) [Compound 7i],21%
14,CCCCCCCCCCCCCc1cc(O)c2c(c1)OC1(C)CCC3C1C2C3(C)C (stereo not drawn) [Compound 3i],79%
15,CCCCCc1cc(OC(=O)c2ccco2)c2c(c1)OC1(C)CCC3C1C2C3(C)C (stereo not drawn) [Compound 9j],≥100%
16,CCCCCCCCc1cc(O)c2c(c1)OC1(C)CCC3C1C2C3(C)C (stereo not drawn) [Compound 3h],75%
17,C#CCOc1cc(CCCCC)cc2c1C1C3C(CCC3(C)O2)C1(C)C (stereo not drawn) [Compound 7e],72%
18,CCCCCc1cc(OCCC)c2c(c1)OC1(C)CCC3C1C2C3(C)C (stereo not drawn) [Compound 7d],82%
19,CCCCCCCc1cc(O)c2c(c1)OC1(C)CCC3C1C2C3(C)C (stereo not drawn) [Compound 3g],79%
